Source: publication PMC6724510 (Molecular Biology of the Cell, 2019)

Target: T1, Spf1p (Saccharomyces cerevisiae, UniProt P39986)
T1 sequence (P39986 1-1215): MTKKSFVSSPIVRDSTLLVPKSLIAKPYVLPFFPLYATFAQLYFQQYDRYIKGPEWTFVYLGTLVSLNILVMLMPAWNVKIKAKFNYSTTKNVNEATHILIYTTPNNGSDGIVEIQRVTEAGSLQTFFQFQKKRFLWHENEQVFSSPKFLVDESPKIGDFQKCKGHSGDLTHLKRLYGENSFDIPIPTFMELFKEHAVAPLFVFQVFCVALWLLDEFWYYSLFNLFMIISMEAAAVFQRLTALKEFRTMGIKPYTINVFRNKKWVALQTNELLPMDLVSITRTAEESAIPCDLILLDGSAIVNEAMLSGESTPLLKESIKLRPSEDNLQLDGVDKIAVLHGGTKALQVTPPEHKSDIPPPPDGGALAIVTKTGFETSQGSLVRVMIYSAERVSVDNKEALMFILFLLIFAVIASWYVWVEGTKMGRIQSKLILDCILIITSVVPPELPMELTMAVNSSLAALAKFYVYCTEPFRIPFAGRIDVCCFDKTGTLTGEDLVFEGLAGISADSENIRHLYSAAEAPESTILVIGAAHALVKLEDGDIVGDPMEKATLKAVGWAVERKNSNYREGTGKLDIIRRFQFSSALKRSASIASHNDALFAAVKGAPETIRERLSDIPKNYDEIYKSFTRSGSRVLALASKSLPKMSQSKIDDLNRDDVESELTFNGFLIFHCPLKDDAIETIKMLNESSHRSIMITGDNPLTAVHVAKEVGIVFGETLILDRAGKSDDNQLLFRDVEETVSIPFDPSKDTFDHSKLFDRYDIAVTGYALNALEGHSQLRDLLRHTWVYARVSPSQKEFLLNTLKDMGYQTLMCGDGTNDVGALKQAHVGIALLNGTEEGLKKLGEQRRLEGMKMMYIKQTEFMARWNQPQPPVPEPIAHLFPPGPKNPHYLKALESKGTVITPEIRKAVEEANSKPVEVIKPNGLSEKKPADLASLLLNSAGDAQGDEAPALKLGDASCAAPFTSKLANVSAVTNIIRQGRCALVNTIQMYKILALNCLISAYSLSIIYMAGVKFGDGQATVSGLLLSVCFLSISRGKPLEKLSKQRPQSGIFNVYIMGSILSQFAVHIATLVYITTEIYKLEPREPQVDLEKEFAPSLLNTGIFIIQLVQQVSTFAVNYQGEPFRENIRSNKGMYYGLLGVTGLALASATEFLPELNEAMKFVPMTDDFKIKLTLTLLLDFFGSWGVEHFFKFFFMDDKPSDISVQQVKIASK
Assay: inhibition of ATP hydrolysis by purified Spf1p
Type: biochemical

[O]=[V]([OH])([OH])[OH] [vanadate]
Ki: 9.8 ± 2.4 µM
